Reference: ChEMBL document CHEMBL1201862, “PubChem BioAssay data set” (2004)
Calls of active or inactive are those of the source.

Assays:
INS1 = assay: INS-1E survival protection against cytokine death – cell-based, luminescence, retest, dose response (AID 449756); assay type: functional; conditions: Rattus norvegicus;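 further: cell death triggered by IL-1 beta plus TNF-alpha plus IFN-gamma mixture; protective hits raise ATP signal compared with cytokine alone wells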
Cytochrome P450 2D6 = Cytochrome P450 2D6 (Homo sapiens, UniProt P10635);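 further: CYP2D6 member of a cytochrome P450 panel assay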
Cytochrome P450 2D6, sequence (P10635 whole entry): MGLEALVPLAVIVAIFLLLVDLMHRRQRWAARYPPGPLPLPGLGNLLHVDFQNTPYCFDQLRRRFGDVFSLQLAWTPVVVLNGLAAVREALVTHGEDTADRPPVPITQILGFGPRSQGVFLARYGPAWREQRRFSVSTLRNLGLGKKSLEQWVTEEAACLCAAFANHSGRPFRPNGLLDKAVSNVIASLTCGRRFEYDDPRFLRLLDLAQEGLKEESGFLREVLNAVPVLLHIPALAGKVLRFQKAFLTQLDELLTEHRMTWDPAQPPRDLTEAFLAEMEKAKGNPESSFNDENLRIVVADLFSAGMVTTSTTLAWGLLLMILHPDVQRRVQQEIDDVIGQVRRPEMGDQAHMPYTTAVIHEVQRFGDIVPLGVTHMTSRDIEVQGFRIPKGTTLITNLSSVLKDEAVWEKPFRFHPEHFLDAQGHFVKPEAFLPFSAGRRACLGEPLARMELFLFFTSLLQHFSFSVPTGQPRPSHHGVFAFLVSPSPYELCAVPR

Cytochrome P450 1A2 = biological target: T1, Cytochrome P450 1A2 (Homo sapiens, UniProt P05177);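 further: PubChem cytochrome P450 panel assay, CYP1A2 panel member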
T1 sequence (P05177 whole entry): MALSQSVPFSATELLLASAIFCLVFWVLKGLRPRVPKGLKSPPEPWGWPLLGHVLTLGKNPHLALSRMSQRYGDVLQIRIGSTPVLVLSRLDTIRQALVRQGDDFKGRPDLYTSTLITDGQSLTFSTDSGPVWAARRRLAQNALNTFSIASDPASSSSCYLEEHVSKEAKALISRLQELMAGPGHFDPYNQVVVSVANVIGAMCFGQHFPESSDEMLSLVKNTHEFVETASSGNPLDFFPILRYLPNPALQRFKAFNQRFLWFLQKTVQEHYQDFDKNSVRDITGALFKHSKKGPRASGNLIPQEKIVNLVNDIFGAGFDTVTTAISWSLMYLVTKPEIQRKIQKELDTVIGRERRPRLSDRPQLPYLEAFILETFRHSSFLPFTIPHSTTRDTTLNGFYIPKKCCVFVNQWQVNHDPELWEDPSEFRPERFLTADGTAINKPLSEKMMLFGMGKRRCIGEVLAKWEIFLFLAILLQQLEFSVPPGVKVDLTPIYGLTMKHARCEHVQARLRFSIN

[1] = Luminescence Cell-Based Dose Retest to Confirm Inhibitors of Cancer Stem Cells. [Related pubchem assays (depositor defined):AID2717, AID2721]; assay type: functional; conditions: Homo sapiens
[2] = biological target: T2, Corticotropin-releasing factor receptor 2/Corticotropin-releasing factor-binding protein (Homo sapiens, UniProt P24387+Q13324); assay: activators of CRF receptor 2 with binding protein – uHTS hits, confirmation (AID 602473); assay type: functional; conditions: read-out: EC50_Mean
T2 sequence (Q13324 whole entry): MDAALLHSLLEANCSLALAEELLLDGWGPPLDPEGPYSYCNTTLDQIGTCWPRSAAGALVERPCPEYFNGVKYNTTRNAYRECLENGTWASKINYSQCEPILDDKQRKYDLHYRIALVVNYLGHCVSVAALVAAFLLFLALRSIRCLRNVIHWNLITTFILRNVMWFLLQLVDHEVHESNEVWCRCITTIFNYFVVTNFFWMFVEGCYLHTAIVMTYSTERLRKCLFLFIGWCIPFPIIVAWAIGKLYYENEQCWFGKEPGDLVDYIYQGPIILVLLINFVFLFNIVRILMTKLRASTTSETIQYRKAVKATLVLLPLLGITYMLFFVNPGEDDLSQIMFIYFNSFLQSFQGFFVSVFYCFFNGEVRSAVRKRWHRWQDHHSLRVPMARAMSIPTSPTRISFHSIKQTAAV
T2 sequence (P24387 whole entry): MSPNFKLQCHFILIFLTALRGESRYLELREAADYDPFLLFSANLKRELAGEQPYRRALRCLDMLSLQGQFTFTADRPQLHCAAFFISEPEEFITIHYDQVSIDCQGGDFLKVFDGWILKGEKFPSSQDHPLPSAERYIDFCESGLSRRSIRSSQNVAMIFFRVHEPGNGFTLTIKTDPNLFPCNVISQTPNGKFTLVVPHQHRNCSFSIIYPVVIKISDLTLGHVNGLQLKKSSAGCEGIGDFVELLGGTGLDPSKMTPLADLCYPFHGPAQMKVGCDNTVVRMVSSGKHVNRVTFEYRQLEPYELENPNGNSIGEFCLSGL

[3] = biological target: T2, Corticotropin-releasing factor receptor 2/Corticotropin-releasing factor-binding protein; assay: Dose Response confirmation of uHTS hits for small molecule antagonists of the CRF-binding protein and CRF-R2 receptor complex.; assay type: functional; conditions: read-out: IC50_Mean
Cytochrome P450 3A4 = Cytochrome P450 3A4 (Homo sapiens, UniProt P08684);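 further: CYP3A4 tested as one member of a cytochrome P450 panel screen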
Cytochrome P450 3A4, sequence (P08684 whole entry): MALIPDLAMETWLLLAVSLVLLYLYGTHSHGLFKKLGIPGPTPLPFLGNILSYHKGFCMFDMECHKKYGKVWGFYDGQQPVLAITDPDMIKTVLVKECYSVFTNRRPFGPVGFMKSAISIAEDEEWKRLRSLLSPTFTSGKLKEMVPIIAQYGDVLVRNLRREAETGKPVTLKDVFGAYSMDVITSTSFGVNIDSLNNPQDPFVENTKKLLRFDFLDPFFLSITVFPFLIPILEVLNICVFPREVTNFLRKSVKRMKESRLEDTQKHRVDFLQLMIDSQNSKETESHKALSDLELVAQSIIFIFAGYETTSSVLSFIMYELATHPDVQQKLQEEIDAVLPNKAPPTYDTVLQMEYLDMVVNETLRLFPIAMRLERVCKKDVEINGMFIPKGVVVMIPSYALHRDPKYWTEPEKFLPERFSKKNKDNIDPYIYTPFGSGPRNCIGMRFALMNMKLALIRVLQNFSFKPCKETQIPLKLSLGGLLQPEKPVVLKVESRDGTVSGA

Cytochrome P450 2C19 = Cytochrome P450 2C19 (Homo sapiens, UniProt P33261); assay: Cytochrome panel assay with activity outcomes. Panel member name: p450-cyp2c19 Compounds with AC50 equal or less than 10 uM are considered active; assay type: functional; conditions: read-out: AC50
Cytochrome P450 2C19, sequence (P33261 whole entry): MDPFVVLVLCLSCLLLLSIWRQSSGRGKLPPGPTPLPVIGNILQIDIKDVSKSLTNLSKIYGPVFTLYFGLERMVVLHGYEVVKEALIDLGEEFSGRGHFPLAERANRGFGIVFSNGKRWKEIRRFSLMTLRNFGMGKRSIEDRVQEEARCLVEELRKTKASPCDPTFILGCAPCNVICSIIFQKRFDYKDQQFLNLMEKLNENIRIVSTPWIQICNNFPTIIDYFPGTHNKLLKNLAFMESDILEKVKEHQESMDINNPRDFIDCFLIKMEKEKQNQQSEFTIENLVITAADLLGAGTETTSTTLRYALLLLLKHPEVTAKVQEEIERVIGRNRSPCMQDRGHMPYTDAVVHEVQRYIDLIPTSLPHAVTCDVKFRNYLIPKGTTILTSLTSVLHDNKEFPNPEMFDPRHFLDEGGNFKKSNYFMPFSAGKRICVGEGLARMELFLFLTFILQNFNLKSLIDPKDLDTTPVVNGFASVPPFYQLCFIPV

Cytochrome P450 2C9 = Cytochrome P450 2C9 (Homo sapiens, UniProt P11712)
Cytochrome P450 2C9, sequence (P11712 whole entry): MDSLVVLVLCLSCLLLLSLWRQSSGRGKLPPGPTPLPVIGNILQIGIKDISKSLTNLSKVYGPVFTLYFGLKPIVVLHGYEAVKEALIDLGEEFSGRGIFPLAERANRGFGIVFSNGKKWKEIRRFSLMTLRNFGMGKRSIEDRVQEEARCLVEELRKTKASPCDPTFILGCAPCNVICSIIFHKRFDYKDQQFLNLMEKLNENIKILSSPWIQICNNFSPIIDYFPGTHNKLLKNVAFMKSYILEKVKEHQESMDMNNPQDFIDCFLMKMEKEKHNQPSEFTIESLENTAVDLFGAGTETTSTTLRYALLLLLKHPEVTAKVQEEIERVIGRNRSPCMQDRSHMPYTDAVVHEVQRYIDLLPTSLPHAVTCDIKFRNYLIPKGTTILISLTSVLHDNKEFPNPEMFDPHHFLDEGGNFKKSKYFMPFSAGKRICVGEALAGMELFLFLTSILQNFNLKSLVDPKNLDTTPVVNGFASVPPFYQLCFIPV

[4] = biological target: T3, Rac GTPase-activating protein 1 (Homo sapiens, UniProt Q9H0H5); assay: blockers of MgcRacGAP-driven Rac1 GTP hydrolysis – biochemical, ADP Hunter fluorescence, primary and confirmatory, confirmation (AID 624330); assay type: functional
T3 sequence (Q9H0H5 whole entry): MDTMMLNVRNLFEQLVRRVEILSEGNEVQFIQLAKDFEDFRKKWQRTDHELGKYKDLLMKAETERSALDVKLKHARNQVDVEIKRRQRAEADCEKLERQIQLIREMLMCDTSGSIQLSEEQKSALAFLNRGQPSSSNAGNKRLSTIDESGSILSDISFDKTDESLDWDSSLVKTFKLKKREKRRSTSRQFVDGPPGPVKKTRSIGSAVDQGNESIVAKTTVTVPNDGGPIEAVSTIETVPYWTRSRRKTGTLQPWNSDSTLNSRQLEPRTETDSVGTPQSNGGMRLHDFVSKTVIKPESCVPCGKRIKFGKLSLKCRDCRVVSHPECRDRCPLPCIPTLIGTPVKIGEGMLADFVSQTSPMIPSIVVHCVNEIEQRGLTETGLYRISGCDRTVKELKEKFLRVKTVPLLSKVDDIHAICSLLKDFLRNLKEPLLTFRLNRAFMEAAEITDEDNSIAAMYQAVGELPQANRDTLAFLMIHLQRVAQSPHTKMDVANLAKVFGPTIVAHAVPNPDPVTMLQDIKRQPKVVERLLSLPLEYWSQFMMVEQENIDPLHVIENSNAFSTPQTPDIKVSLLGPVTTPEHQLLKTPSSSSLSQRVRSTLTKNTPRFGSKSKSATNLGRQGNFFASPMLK

[5] = tested on: Streptococcus sp. 'group A'; assay: Streptococcus pyogenes SK(-)GAS viability under kanamycin – luminescence, BacTiterGlo, confirmation, counter-screen for streptokinase expression inhibitor project, dose response (AID 1900); assay type: functional, organism-based
Streptococcus = assay: GAS UMAA2166 growth inhibition – luminescence, BacTiterGlo, counter-screen for streptokinase expression inhibitor project, dose response (AID 1915); assay type: functional, organism-based;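 further: potency for reduction of bacterial viability or growth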

With `Cc1c(C(=O)Nc2nc(-c3ccccn3)cs2)oc2ccccc12` the AC50 (INS1) was 5.62 µM (active).
With `O=C(COc1cccc(NC(=O)c2cccc([N+](=O)[O-])c2)c1)c1ccc(Br)cc1` the AC50 (Cytochrome P450 2D6) was 3.16 µM (inconclusive) and the AC50 (Cytochrome P450 1A2) was 5.62 µM (inconclusive).
In the case of `CC(C)(C)OC(=O)NCc1ccc(NC(=O)c2[nH]cnc2C(=O)NCCCNC(=O)c2nc[nH]c2C(=O)Nc2ccc(CNC(=O)OC(C)(C)C)cc2)cc1`, the AC50 [1] was 1.75 µM (active).
For `Cc1onc(-c2ccccc2)c1C(=O)N/N=C/c1cc(Br)c(Br)o1`, the EC50 [2] was > 53 µM (inactive) and the IC50 [3] was > 47.1 µM (inactive).
In the case of `COc1cc2c(cc1O)[C@H]1Cc3ccc(OC)c(O)c3CN1CC2`, the AC50 (Cytochrome P450 3A4) was 12.6 µM (inconclusive), the AC50 (Cytochrome P450 2C19) was 7.94 µM (inconclusive) and the AC50 (Cytochrome P450 1A2) was 15.8 µM (inconclusive).
With `CCOc1ccc(C(=O)CCC(=O)N2CCN(c3ccc(O)cc3)CC2)cc1` the AC50 [1] was 5.57 µM (active).
In the case of `Cc1ccnc(NC(=O)c2cccc(S(=O)(=O)N3CCCC3)c2)c1`, the EC50 [2] was > 53 µM (inactive) and the IC50 [3] was > 47.1 µM (inactive).
For `CCC/C=C(\CCC)C(NS(=O)(=O)c1ccc(-c2ccccc2)cc1)c1ccc(C(=O)OC)cc1` (configuration not stated), the AC50 (Cytochrome P450 2D6) was 39.8 µM (inconclusive), the AC50 (Cytochrome P450 2C9) was 3.16 µM (inconclusive) and the AC50 (Cytochrome P450 1A2) was 6.31 µM (inconclusive).
With `O=C(c1cc(-c2cccc(Cl)c2)nc2ccccc12)N1CCN(c2ccccn2)CC1` the AC50 (INS1) was 14.8 µM (active).
In the case of `COc1ccc2oc(=O)c(C(=O)Oc3ccc(NC(C)=O)cc3)cc2c1`, the AC50 (Cytochrome P450 2C9) was 39.8 µM (inconclusive) and the IC50 [4] was 24.5 µM (active).
With `CCC/C=C(\CCC)C(NC(=O)Cc1ccccc1)c1ccc(C(=O)OC)cc1` (configuration not stated) the AC50 (Cytochrome P450 2D6) was 5.01 µM (inconclusive) and the AC50 (Cytochrome P450 1A2) was 15.8 µM (inconclusive).
With `CCOC(=O)c1cc2c(=O)c3cc(C)ccc3oc2nc1C` the EC50 [2] was > 53 µM (inactive) and the IC50 [3] was > 47.1 µM (inactive).
In the case of `O=c1c2ccccc2nc(/C=C/c2ccccc2)n1-c1ccccc1O`, the AC50 [1] was 4.57 µM (active).
In the case of `O=C(Oc1ccccc1)N1CCC[C@@]2(CCN(c3ccncc3)C2)C1`, the AC50 (Cytochrome P450 2D6) was 20 µM (inconclusive) and the AC50 (Cytochrome P450 1A2) was 20 µM (inconclusive).
With `CC(=O)Oc1ccc(-c2csc(Nc3cccc(C)n3)n2)cc1` the AC50 [1] was 6.58 µM (active).
In the case of `C=C(CC[C@@H](O)C(C)(C)O)[C@H]1CC[C@]2(C)[C@@H]1CC[C@@H]1[C@@]3(C)CCC(=O)C(C)(C)C3CC[C@]12C` (some centres not stated), the AC50 [1] was 1.75 µM (active).
In the case of `O=C(NCC1CCCO1)c1onc(CSc2cccc3ccccc23)c1C(=O)O` (configuration not stated), the EC50 [2] was > 53 µM (inactive) and the IC50 [3] was > 47.1 µM (inactive).
For `OCCN(/C=N/C1=NN(c2cccc(C(F)(F)F)c2)CC1)CCO`, the AC50 (Cytochrome P450 3A4) was 14.1 µM (inconclusive), the AC50 (Cytochrome P450 2C9) was 0.0224 µM (inconclusive) and the IC50 [4] was 30.9 µM (active).
In the case of `CC(C)CN(CC(C)C)C(=O)CCCC(=O)N(CC(C)C)CC(C)C`, the EC50 [2] was > 53 µM (inactive) and the IC50 [3] was > 47.1 µM (inactive).
For `CCC(CC)NC(=O)CC(c1ccccc1)c1ccccc1`, the EC50 [2] was > 53 µM (inactive) and the IC50 [3] was > 47.1 µM (inactive).
With `CC(C)(C)OC(=O)NCCc1nnc(SCC(=O)Nc2cccc(Cl)c2)o1` the AC50 (Cytochrome P450 2C9) was 25.1 µM (inconclusive) and the AC50 (Cytochrome P450 1A2) was 25.1 µM (inconclusive).
For `Cc1ccc(S(=O)(=O)N2CCN(C(=O)COc3ccc(NC(=O)c4ccco4)cc3)CC2)cc1`, the AC50 [1] was > 195 µM (inactive).
With `O=c1cc(N2CCCCC2)c(-c2ccccc2)nn1Cc1ccc(Cl)cc1` the AC50 [1] was 2.33 µM (active).
In the case of `FC(F)(F)c1cc(CCN2C(S)=NC[C@@H]2CC2CCCCC2)cc(C(F)(F)F)c1`, the EC50 [5] was 5.13 µM (active), the AC50 [1] was 5.79 µM (active) and the EC50 (Streptococcus) was > 150 µM (not active).
In the case of `CN(C)C(=O)C1CC(=O)OC12CCCCC2` (configuration not stated), the EC50 [2] was > 53 µM (inactive) and the IC50 [3] was > 47.1 µM (inactive).
With `Cc1nn(C)cc1CN(C)C(=O)c1ccc(OC2CCN(Cc3ccccn3)CC2)cc1` the EC50 [2] was > 53 µM (inactive) and the IC50 [3] was > 47.1 µM (inactive).
In the case of `Cc1cccc(-c2cc3nc4c(c(NCc5ccco5)n3n2)CCCC4)c1`, the AC50 [1] was 7.11 µM (active).
For `CC1C(=O)N(Cc2cn(CCC3OCCCO3)nn2)CCS(=O)(=O)N1Cc1ccc(-c2ccc(Cl)cc2)cc1` (configuration not stated), the EC50 [2] was > 53 µM (inactive) and the IC50 [3] was > 47.1 µM (inactive).
In the case of `Nc1ccc2[nH]c(S)nc2c1`, the IC50 [4] was 19.4 µM (active).
In the case of `COc1ncnc(OC)c1S(=O)(=O)Nc1ccc(C(F)(F)F)cc1`, the AC50 (INS1) was > 260 µM (inactive).
In the case of `COc1ccc(N2CCC(CN=C(S)Nc3cc(C)cc(C)c3)C2)cc1` (configuration not stated), the IC50 [4] was 108 µM (active).
For `Cc1ccc(Cl)cc1N(CC(=O)N1CCOCC1)S(C)(=O)=O`, the EC50 [2] was > 53 µM (inactive) and the IC50 [3] was > 47.1 µM (inactive).
With `Cc1c(Cl)c([N+](=O)[O-])nn1CCCC(=O)Nc1cc(Oc2ccccc2)cc([N+](=O)[O-])c1` the EC50 [2] was > 53 µM (inactive) and the IC50 [3] was > 47.1 µM (inactive).
With `Cc1ccc(OCCN2CCN(C)CC2)c([N+](=O)[O-])c1` the IC50 [4] was 75.4 µM (active).
For `COc1ccccc1CNCC(=O)NCc1ccc(C)cc1`, the IC50 [4] was 163 µM (active).
With `CC(=O)NCc1ccc(C(=O)O)cc1` the EC50 [2] was > 53 µM (inactive) and the IC50 [3] was > 47.1 µM (inactive).
In the case of `COc1ccc(NC2CCCN(C(=O)c3cccc(N4CCNC4=O)c3)C2)cc1` (configuration not stated), the IC50 [4] was 75.2 µM (active).
With `COc1ccc(CCNC(=O)C(=O)NCC2OCCN2S(=O)(=O)c2ccc(OC)cc2)cc1` (configuration not stated) the EC50 [2] was > 53 µM (inactive) and the IC50 [3] was > 47.1 µM (inactive).
With `COc1ccc(N)cc1NC(=O)CN1CCOCC1` the IC50 [4] was 118 µM (active).
With `CCN(Cc1ccncc1)Cc1ccc(OC)cc1OC` the IC50 [4] was 117 µM (active).
For `COc1ncnc2c1ncn2CCCNc1ccc(C)c(C)c1`, the IC50 [4] was 102 µM (active).
